For 46 molecules, MIC, MIC90 and MIC99 results are on record in ChEMBL document CHEMBL5244273, “Tuberculosis: An Overview of the Immunogenic Response, Disease Progression, and Medicinal Chemistry Efforts in the Last Decade toward the Development of Potential Drugs for Extensively Drug-Resistant Tuberculosis Strains” (J Med Chem, 2021).

Converted amounts (≈) assume the structure as drawn.

This assay relates to Mycobacterium tuberculosis. The assay can be described thus: Antimycobacterial activity against Mycobacterium tuberculosis H37Rv. It counts as functional.
In turn, `Cc1ccc(-c2nnc(S)o2)cc1` came in with a minimal inhibitory concentration (MIC) of 9.6 µg/mL (≈ 49.9 µM).
Still for that read-out and setting: then `COC(=O)c1c(NC(=O)c2c(F)c(F)c(F)c(F)c2F)sc2c1CCCCC2`, with 1 µg/mL (≈ 2.38 µM).
`Sc1nnc(-c2ccccc2Cl)o1` yielded a minimal inhibitory concentration (MIC) of 21.2 µg/mL (≈ 99.7 µM).
`Sc1nnc(-c2ccc(Cl)cc2)o1`: the minimum inhibitory concentration (MIC) was found to be 5.3 µg/mL (≈ 24.9 µM).
The molecule `Fc1ccc(-c2nnc(S)o2)cc1` displayed a minimal inhibitory concentration (MIC) of over 25 µg/mL.
Same read-out and setting: in the case of `Sc1nnc(-c2ccccc2Br)o1` it was over 25 µg/mL.
`CCOC(=O)c1c(NC(=O)c2c(F)c(F)c(F)c(F)c2F)sc(C(N)=O)c1C` came in with an MIC of 0.5 µg/mL (≈ 1.18 µM).
Same read-out and setting: in the case of `S=c1[nH]nc(C2CCCCC2)o1` it was over 25 µg/mL.
Same read-out and setting: then `CCOC(=O)c1c(NC(=O)c2c(F)c(F)c(F)c(F)c2F)sc2c1CCCCC2`, with 1.9 µg/mL (≈ 4.38 µM).
Still for that read-out and setting: in the case of `Nc1ccsc1-c1nnc(S)o1` it was 21.3 µg/mL (≈ 107 µM); in that of `NC(=O)N1N=C(c2ccc3oc(N)nc3c2)CC1c1cccs1` (centres undefined), 6.25 µg/mL (≈ 19.1 µM).
On to `O=[N+]([O-])c1ccc(-c2nnc(S)o2)cc1`, for which 3.1 µg/mL (≈ 13.9 µM) was the least that counted as inhibitory (MIC).
Regarding `CC(=O)N1/C(=C/c2cccc(-c3cnn(C)c3)c2)C(=O)c2ccccc21`, the MIC90 is 4.93 µM (≈ 1.69 µg/mL) and the MIC99 turned out to be 5.61 µM (≈ 1.93 µg/mL).
Regarding `CC(=O)N1/C(=C/c2ccc(Oc3ccc(Cl)cc3)cc2)C(=O)c2cc(Cl)ccc21`, the MIC90 came out at 6.02 µM (≈ 2.55 µg/mL) and the MIC99 was determined as 6.87 µM (≈ 2.91 µg/mL).
In turn, `NC(=O)N1N=C(c2ccc3oc(S)nc3c2)CC1c1cccs1` (centres undefined) gave a minimal inhibitory concentration (MIC) of 12.5 µg/mL (≈ 36.3 µM).
For the molecule `CC(=O)N1N=C(c2ccc3oc(N)nc3c2)CC1c1cccs1` (centres undefined), inhibition of growth (MIC) required 6.25 µg/mL (≈ 19.1 µM).
Same read-out and setting: then `CC(=O)N1N=C(c2ccc3oc(NC(=O)c4ccccc4)nc3c2)CC1c1cccs1` (centres undefined), with 6.25 µg/mL (≈ 14.5 µM); and `CC(=O)N1N=C(c2ccc3oc(-c4ccccn4)nc3c2)CC1c1cccs1` (centres undefined), with 25 µg/mL (≈ 64.4 µM); and `COc1ccccc1-c1nc2cc(C3=NN(C(C)=O)C(c4cccs4)C3)ccc2o1` (centres undefined), with 25 µg/mL (≈ 59.9 µM).
Regarding `CC(=O)N1/C(=C/c2ccc(Oc3ccc(Cl)cc3)cc2)C(=O)c2ccccc21`, the MIC90 worked out at 6.2 µM (≈ 2.42 µg/mL) and the MIC99 is 8.4 µM (≈ 3.27 µg/mL).
For `CC(=O)N1/C(=C/c2ccc(OCc3ccccc3)cc2)C(=O)c2ccccc21`, in that order: 1.89 µM (≈ 0.698 µg/mL) and 2.58 µM (≈ 0.953 µg/mL).
In turn, `CC(=O)N1/C(=C/c2ccc(-c3ccccc3)cc2)C(=O)c2cc(C)ccc21` gave an MIC90 of over 20 µM and an MIC99 of over 20 µM.
`CC(=O)N1N=C(c2ccc3oc(S)nc3c2)CC1c1cccs1` (centres undefined) returned an MIC of 6.25 µg/mL (≈ 18.2 µM).
With `COC(=O)c1c(NC(=O)c2ccc(C)cc2)sc2c1CCCCC2`, the MIC is over 20.2 µg/mL.
The molecule `CCc1c(C)sc(NC(=O)c2c(F)c(F)c(F)c(F)c2F)c1C(=O)OC(C)C` registered an MIC of 1 µg/mL (≈ 2.37 µM).
Regarding `CC(=O)N1/C(=C/c2ccc(-c3ccsc3)cc2)C(=O)c2ccccc21`, the MIC90 is 0.336 µM (≈ 0.116 µg/mL) and the MIC99 came to 0.6 µM (≈ 0.207 µg/mL).
In the case of `Sc1nnc(-c2ccccc2I)o1`, the minimal inhibitory concentration (MIC) stood at 15.2 µg/mL (≈ 50 µM).
On the same count and under the same terms, then `CCCC(=O)Nc1nc2cc(C3=NN(C(C)=O)C(c4cccs4)C3)ccc2o1` (centres undefined), with 12.5 µg/mL (≈ 31.5 µM); and `CC(=O)Nc1nc2cc(C3=NN(C(C)=O)C(c4cccs4)C3)ccc2o1` (centres undefined), with 25 µg/mL (≈ 67.9 µM).
Molecule `CC(=O)N1/C(=C/c2ccc(-c3cnn(C)c3)cc2)C(=O)c2ccccc21` yielded an MIC90 of 3.16 µM (≈ 1.09 µg/mL) and an MIC99 of 3.66 µM (≈ 1.26 µg/mL).
On to `CC(=O)N1N=C(c2ccc3oc(-c4ccccc4Cl)nc3c2)CC1c1cccs1` (centres undefined), for which the MIC was determined as 25 µg/mL (≈ 59.3 µM).
Same read-out and setting: then `Cc1c(C(N)=O)sc(NC(=O)c2c(F)c(F)c(F)c(F)c2F)c1C(=O)O`, with 78.4 µg/mL (≈ 199 µM); and `Sc1nnc(-c2ccc(-c3ccccc3)cc2)o1`, with over 25 µg/mL; and `COC(=O)c1c(NC(=O)c2ccccc2F)sc2c1CCCCC2`, with 20.2 µg/mL (≈ 58.1 µM).
On the same count and under the same terms, in the case of `CC(=O)N1N=C(c2ccc3oc(C(=O)c4ccccc4)nc3c2)CC1c1cccs1` (centres undefined) it was 50 µg/mL (≈ 120 µM); in that of `COC(=O)c1c(NC(=O)c2c(F)c(F)c(F)c(F)c2F)sc(-c2ccc(Cl)cc2)c1C(=O)OC`, 3.5 µg/mL (≈ 6.73 µM).
`CC(=O)N1N=C(c2ccc3oc(NC(=O)c4cccc(Cl)c4)nc3c2)CC1c1cccs1` (centres undefined) registered a minimal inhibitory concentration (MIC) of 12.5 µg/mL (≈ 26.9 µM).
The same measure, in the same setting: in the case of `COc1cc(-c2nc3cc(C4=NN(C(C)=O)C(c5cccs5)C4)ccc3o2)cc(OC)c1OC` (centres undefined) it was 25 µg/mL (≈ 52.4 µM); in that of `Sc1nnc(-c2ccc(Br)cc2)o1`, over 25 µg/mL; in that of `COC(=O)c1sc(NC(=O)c2c(F)c(F)c(F)c(F)c2F)c(C(=O)ON)c1C`, 4.9 µg/mL (≈ 11.5 µM).
`CC(=O)N1/C(=C/c2cccc(-c3ccccc3)c2)C(=O)c2ccccc21` returned an MIC90 of 4.49 µM (≈ 1.52 µg/mL) and an MIC99 of 4.94 µM (≈ 1.68 µg/mL).
The molecule `CC(=O)N1N=C(c2ccc3oc(-c4ccccc4)nc3c2)CC1c1cccs1` (centres undefined) returned an MIC of 25 µg/mL (≈ 64.5 µM).
On the same count and under the same terms, in the case of `Oc1cc(O)cc(-c2nnc(S)o2)c1` it was 21 µg/mL (≈ 99.9 µM).
Molecule `COc1cccc(-c2nc3cc(C4=NN(C(C)=O)C(c5cccs5)C4)ccc3o2)c1` (centres undefined) came in with an MIC of 25 µg/mL (≈ 59.9 µM).
The same measure, in the same setting: then `CCOC(=O)c1sc(NC(=O)c2c(F)c(F)c(F)c(F)c2F)c(C(=O)OCC)c1C`, with 7.1 µg/mL (≈ 15.7 µM).
As to `O=[N+]([O-])c1ccc([N+](=O)[O-])c(-c2nnc(S)o2)c1`, the MIC is 6.7 µg/mL (≈ 25 µM).
